{"source": "ChEMBL document CHEMBL5104130", "about": "“Synthesis of a tricyclic hexapeptide -via two consecutive ruthenium-catalyzed macrocyclization steps- with a constrained topology to mimic vancomycin's binding properties toward D-Ala-D-Ala dipeptide” (2022)", "system": "Staphylococcus aureus", "assay": "Antibacterial activity against vancomycin-sensitive Staphylococcus aureus ATCC 49320 assessed as inhibition of bacterial growth incubated for 24 hrs", "type": "functional", "data": [{"smiles": "CN[C@H](CC(C)C)C(=O)N[C@@H]1CCCCn2nncc2-c2cc3cc(c2OC)-c2cnnn2CCCC[C@@H]2NC(=O)[C@@H](C/C=C/Cc4ccccc4NC2=O)NC(=O)[C@@H]3NC(=O)[C@H](C)NC1=O", "values": [{"measurement": "MIC", "result": 37.5, "unit": "µg/mL"}]}]}
